What was measured:
Assay in all cases: Validation of gRNAs: Surveyor digest, gel electrophoresis, densitometry in HEK293T cells
Format in all cases: cell-based, human
CCR5 = CCR5 target gene site, 3 days
Method: (§1) HEK293T cells were plated out at a density of 1×10^5 cells per well in a 24 well plate. 150 uL of Opti-MEM medium was combined with 1.5 ug of gRNA plasmid, 1.5 ug of Cas9 plasmid. Another 150 uL of Opti-MEM medium was combined with 5 ul of Lipofectamine 2000 Transfection reagent (Invitrogen). The solutions were combined together and incubated for 15 minutes at room temperature. The DNA-lipid complex was added dropwise to wells of the 24 well plates. Cells were incubated for 3 days at 37° C. and genomic DNA was collected using the GeneJET Genomic DNA Purification Kit (Thermo Scientific). Activity of the gRNAs was quantified by a Surveyor Digest, gel electrophoresis, and densitometry (FIG. 60 and FIG. 61) (Guschin, D. Y., et al., “A Rapid and General Assay for Monitoring Endogenous Gene Modification,” Methods in Molecular Biology, 649: 247-256 (2010)).

PD1 = PD1 target gene site, 3 days
Method: HEK293T cells were plated out at a density of 1×10^5 cells per well in a 24 well plate. 150 uL of Opti-MEM medium was combined with 1.5 ug of gRNA plasmid, 1.5 ug of Cas9 plasmid. Another 150 uL of Opti-MEM medium was combined with 5 ul of Lipofectamine 2000 Transfection reagent (Invitrogen). The solutions were combined together and incubated for 15 minutes at room temperature. […] Cells were incubated for 3 days at 37° C. and genomic DNA was collected using the GeneJET Genomic DNA Purification Kit (Thermo Scientific). Activity of the gRNAs was quantified by a Surveyor Digest, gel electrophoresis, and densitometry (FIG. 60 and FIG. 61) (Guschin, D. Y., et al., “A Rapid and General Assay for Monitoring Endogenous Gene Modification,” Methods in Molecular Biology, 649: 247-256 (2010)).

CTLA4 = CTLA4 target gene site, 3 days
Method: as §1

Question: How did the “efficiency of Cas9/gRNA pair in creating double strand break (DSB), percent of gene modifications” value (CCR5) turn out when “CCR5 gRNA#2: sense primer SEQ ID 63 CACCGTCATCCTCCTGACAATCGAT” was run?
Answer: Its value is >60%.

Question: “PD1 gRNA#2: sense primer SEQ ID 35 CACCGCCTGCTCGTGGTGACCGAAG” was tested. Which “efficiency of Cas9/gRNA pair in creating double strand break (DSB), percent of gene modifications” value (PD1) did it give?
Answer: The value was >60%.

B1: CTLA4 gRNA#3: sense primer (SEQ ID printed 'Si') … (nucleic acid)
guide: GCTAGATGATTCCATCTGCACGUUUUAGAGCUAGAAAUAGCAAGUUAAAAUAAGGCUAGUCCGUUAUCAACUUGAAAAAGUGGCACCGAGUCGGUGCUUUU
modifications: 2'-O-methyl 3'-phosphorothioate modifications added, positions not given here
Question: B1 was tested. Which “efficiency of Cas9/gRNA pair in creating double strand break (DSB), percent of gene modifications” value (CTLA4) did it give?
Answer: The value was 39.33%.

— patent US20190374576A1, “VIRAL METHODS OF T CELL THERAPY” (Intima Bioscience, Inc., priority 2016, published 2019)
